Source: ChEMBL document CHEMBL5518170, “Dual target PARP1/EZH2 inhibitors inducing excessive autophagy and producing synthetic lethality for triple-negative breast cancer therapy” (Eur J Med Chem, 2024)

Experiments:
BT-549 [1] = assay: cells; conditions: Homo sapiens, BT-549, 72 h
Description: Cytotoxicity against human BT-549 cells incubated for 72 hrs by MTT assay

MCF-10A [2] = assay: cells; conditions: Homo sapiens, 72 h
Description: Cytotoxicity against human MCF-10A cells incubated for 72 hrs by MTT assay

MDA-MB-231 [3] = assay: cells; conditions: Homo sapiens, MDA-MB-231, 72 h
Description: Cytotoxicity against human MDA-MB-231 cells incubated for 72 hrs by MTT assay

MCF-10A [4] = assay: cells; conditions: Homo sapiens, 72 h; remark: listed apart in the source
BT-549 [5] = assay: cells; conditions: Homo sapiens, BT-549, 72 h; remark: listed apart in the source
MDA-MB-231 [6] = assay: Synergistic antitumor activity against human MDA-MB-231 cells xenografted in BALB/c mouse assessed as tumor growth inhibition at 50 mg/kg,ip administrated in presence of Niraparib for 21 consecutive days; format: functional; conditions: read-out: TGI
MDA-MB-231 [7] = assay: cells; conditions: Homo sapiens, MDA-MB-231, 72 h; remark: listed apart in the source

## CCNc1cc(-c2ccc(CC(=O)N3CCC[C@H](c4nc5c(C(N)=O)cccc5[nH]4)C3)cc2)cc(C(=O)NCc2c(C)cc(C)[nH]c2=O)c1C
BT-549 [1]
  IC50: 23.5 µM
MCF-10A [2]
  IC50: > 40 µM
MDA-MB-231 [3]
  IC50: 33.7 µM

## CCn1ccc2c(C(=O)NCc3c(C)cc(C)[nH]c3=O)cc(-c3ccc(-c4nc5c(C(N)=O)cccc5[nH]4)cc3)cc21
BT-549 [1]
  IC50: > 40 µM
MCF-10A [2]
  IC50: > 40 µM
MDA-MB-231 [3]
  IC50: > 40 µM

## O=C(c1cc(Cc2n[nH]c(=O)c3ccccc23)ccc1F)N1CCN(C(=O)C2CC2)CC1 [OLAPARIB]
BT-549 [1]
  IC50: 35.2 µM
MCF-10A [2]
  IC50: > 40 µM
MDA-MB-231 [3]
  IC50: 35.8 µM

## CCNc1cc(-c2ccc(CC(=O)NCCCCc3nc4c(C(N)=O)cccc4[nH]3)cc2)cc(C(=O)NCc2c(C)cc(C)[nH]c2=O)c1C
BT-549 [1]
  IC50: > 40 µM
MCF-10A [2]
  IC50: > 40 µM
MDA-MB-231 [3]
  IC50: > 40 µM

## CCNc1cc(-c2ccc(CC(=O)Nc3ccc(-c4nc5c(C(N)=O)cccc5[nH]4)cc3)cc2)cc(C(=O)NCc2c(C)cc(C)[nH]c2=O)c1C
BT-549 [1]
  IC50: > 40 µM
MCF-10A [2]
  IC50: > 40 µM
MDA-MB-231 [3]
  IC50: > 40 µM

## CCNc1cc(-c2ccc(CC(=O)NCCCCCc3nc4c(C(N)=O)cccc4[nH]3)cc2)cc(C(=O)NCc2c(C)cc(C)[nH]c2=O)c1C
BT-549 [1]
  IC50: > 40 µM
MCF-10A [2]
  IC50: > 40 µM
MDA-MB-231 [3]
  IC50: > 40 µM

## CCNc1cc(-c2ccc(CC(=O)N3CCC(Cc4nc5c(C(N)=O)cccc5[nH]4)CC3)cc2)cc(C(=O)NCc2c(C)cc(C)[nH]c2=O)c1C
BT-549 [1]
  IC50: > 40 µM
MCF-10A [2]
  IC50: > 40 µM
MDA-MB-231 [3]
  IC50: > 40 µM

## CCNc1cc(-c2ccc(CC(=O)N3CC(c4nc5c(C(N)=O)cccc5[nH]4)C3)cc2)cc(C(=O)NCc2c(C)cc(C)[nH]c2=O)c1C
BT-549 [1]
  IC50: > 40 µM
MCF-10A [2]
  IC50: > 40 µM
MDA-MB-231 [3]
  IC50: > 40 µM

## CCNc1cc(-c2ccc(CC(=O)NCCCc3nc4c(C(N)=O)cccc4[nH]3)cc2)cc(C(=O)NCc2c(C)cc(C)[nH]c2=O)c1C
BT-549 [1]
  IC50: 37.2 µM
MCF-10A [2]
  IC50: > 40 µM
MDA-MB-231 [3]
  IC50: > 40 µM

## CC[C@H](C)n1cc(C)c2c(C(=O)NCc3c(C)cc(C)[nH]c3=O)cc(-c3ccc(N4CCNCC4)nc3)cc21 [GSK2816126]
MCF-10A [4]
  IC50: > 40 µM
BT-549 [5]
  IC50: 8.28 µM
BT-549 [1]
  IC50: 19.2 µM
MCF-10A [2]
  IC50: > 40 µM
MDA-MB-231 [6]
  inhibition in vivo at 50 mg/kg: 57.2%
MDA-MB-231 [7]
  IC50: 6.32 µM
MDA-MB-231 [3]
  IC50: 13.2 µM

## CCNc1cc(-c2ccc(CC(=O)N3CC[C@@H](c4nc5c(C(N)=O)cccc5[nH]4)C3)cc2)cc(C(=O)NCc2c(C)cc(C)[nH]c2=O)c1C
BT-549 [1]
  IC50: 22.6 µM
MCF-10A [2]
  IC50: > 40 µM
MDA-MB-231 [3]
  IC50: > 40 µM

## CCNc1cc(-c2ccc(CC(=O)N3CCC(c4nc5c(C(N)=O)cccc5[nH]4)CC3)cc2)cc(C(=O)NCc2c(C)cc(C)[nH]c2=O)c1C
BT-549 [1]
  IC50: > 40 µM
MCF-10A [2]
  IC50: > 40 µM
MDA-MB-231 [3]
  IC50: > 40 µM

## CCNc1cc(-c2ccc(CC(=O)NCc3nc4c(C(N)=O)cccc4[nH]3)cc2)cc(C(=O)NCc2c(C)cc(C)[nH]c2=O)c1C
BT-549 [1]
  IC50: 21.8 µM
MCF-10A [2]
  IC50: > 40 µM
MDA-MB-231 [3]
  IC50: > 40 µM

## CCNc1cc(-c2ccc(CC(=O)NCCc3nc4c(C(N)=O)cccc4[nH]3)cc2)cc(C(=O)NCc2c(C)cc(C)[nH]c2=O)c1C
BT-549 [1]
  IC50: 31.5 µM
MCF-10A [2]
  IC50: > 40 µM
MDA-MB-231 [3]
  IC50: > 40 µM
